Assay results published in patent publication US7973061B2, “Anaplastic lymphoma kinase modulators and methods of use” (Exelixis, Inc., priority 2004, dated 2011).

Biological target: T1, ALK (baculovirus expressed human ALK kinase domain F1098-K1410) (Homo sapiens, UniProt Q9UM73)
T1 construct: human ALK kinase domain F1098-K1410; made in house
Assay: biochemical
Settings: 1 μM ATP, 4 μM poly-AEKY, 12 nM ALK, 2 hours at ambient temperature; read-out: ALK IC50
Summary of the method: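 Baculovirus-expressed human ALK kinase domain (F1098-K1410) was run in a luciferase-coupled chemiluminescent format, with ATP near its KM. After 2 h at ambient temperature, remaining ATP was read by luciferase-luciferin luminescence. IC50 came from 10-point dose-response curves fitted to a four-parameter equation with Hill slope.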

T1 sequence (Q9UM73 1098-1410): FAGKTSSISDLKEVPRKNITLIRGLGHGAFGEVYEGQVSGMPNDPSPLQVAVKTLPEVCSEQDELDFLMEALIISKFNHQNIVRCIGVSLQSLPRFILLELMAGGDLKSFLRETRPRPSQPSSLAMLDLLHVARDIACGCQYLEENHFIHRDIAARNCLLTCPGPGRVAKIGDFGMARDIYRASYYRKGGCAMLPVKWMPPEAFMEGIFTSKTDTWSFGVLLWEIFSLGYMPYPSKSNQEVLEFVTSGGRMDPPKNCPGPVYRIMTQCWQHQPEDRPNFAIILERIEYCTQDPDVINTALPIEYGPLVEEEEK

Row | SMILES | IC50
1 | O=C(COc1ccc(OC(F)(F)F)cc1)NCc1nc(C(=O)N[C@@H]2CCCc3ccccc32)cs1 [Entry 165, N-[(1R)-1,2,3,4-tetrahydronaphthalen-1-yl]-2-({[({4-[(trifluoromethyl)oxy]phenyl}oxy)acetyl]amino}methyl)-1,3-thiazole-4-carboxamide] | 50 to 500 nM
2 | CC(C)c1ccc(CC(=O)NCc2nc(C(=O)NCCc3cccc(Cl)c3)cs2)cc1 [Entry 50, N-[2-(3-chlorophenyl)ethyl]-2-[({[4-(1-methylethyl)phenyl]acetyl}amino)methyl]-1,3-thiazole-4-carboxamide] | 50 to 500 nM
3 | O=C(COc1ccc(OC(F)(F)F)cc1)NC(Cc1ccccc1)c1nc(C(=O)NCCc2cccc(Cl)c2)cs1 (stereo not shown) [Entry 131, N-[2-(3-chlorophenyl)ethyl]-2-(2-phenyl-1-{[({4-[(trifluoromethyl)oxy]phenyl}oxy)acetyl]amino}ethyl)-1,3-thiazole-4-carboxamide] | 50 to 500 nM
4 | O=C(COc1ccc(Br)cc1)NCc1nc(C(=O)NCCc2ccccc2F)cs1 [Entry 239, 2-[({[(4-bromophenyl)oxy]acetyl}amino)methyl]-N-[2-(2-fluorophenyl)ethyl]-1,3-thiazole-4-carboxamide] | 500 to 2000 nM
5 | CCOc1ccccc1CNC(=O)c1coc(CNC(=O)COc2ccc(OC(F)(F)F)cc2)n1 [Entry 235, N-{[2-(ethyloxy)phenyl]methyl}-2-({[({4-[(trifluoromethyl)oxy]phenyl}oxy)acetyl]amino}methyl)-1,3-oxazole-4-carboxamide] | 500 to 2000 nM
6 | O=C(COc1ccc(OC(F)(F)F)cc1)NCc1nc(C(=O)NC23C[C@H]4C[C@@H](C2)C[C@@H](C3)C4)cs1 [Entry 23, N-tricyclo[3.3.1.1~3,7~]dec-1-yl-2-({[({4-[(trifluoromethyl)oxy]phenyl}oxy)acetyl]amino}methyl)-1,3-thiazole-4-carboxamide] | < 50 nM
7 | O=C(COc1ccc(OC(F)(F)F)cc1)NCc1nc(C(=O)NCCC2=CCCCC2)co1 [Entry 176, N-(2-cyclohex-1-en-1-ylethyl)-2-({[({4-[(trifluoromethyl)oxy]phenyl}oxy)acetyl]amino}methyl)-1,3-oxazole-4-carboxamide] | 50 to 500 nM
8 | COc1cccc(CCNC(=O)c2coc(CNC(=O)COc3ccc(OC(F)(F)F)cc3)n2)c1 [Entry 234, N-{2-[3-(methyloxy)phenyl]ethyl}-2-({[({4-[(trifluoromethyl)oxy]phenyl}oxy)acetyl]amino}methyl)-1,3-oxazole-4-carboxamide] | 500 to 2000 nM
9 | O=C(COc1ccc(OC(F)(F)F)cc1)NCc1nc(C(=O)NCC(c2ccccc2)c2ccccc2)cs1 [Entry 18, N-(2,2-diphenylethyl)-2-({[({4-[(trifluoromethyl)oxy]phenyl}oxy)acetyl]amino}methyl)-1,3-thiazole-4-carboxamide] | < 50 nM
10 | O=C(COc1ccc(OC(F)(F)F)cc1)NCc1nc(C(=O)N[C@@H](Cc2ccccc2)C(=O)N2CCCC2)cs1 [Entry 91, N-[(1S)-2-oxo-1-(phenylmethyl)-2-pyrrolidin-1-ylethyl]-2-({[({4-[(trifluoromethyl)oxy]phenyl}oxy)acetyl]amino}methyl)-1,3-thiazole-4-carboxamide] | 50 to 500 nM
11 | O=C(NCCc1ccccc1F)c1csc(CNC(=O)c2cccnc2Oc2ccc(Cl)cc2)n1 [Entry 129, 2-[(4-chlorophenyl)oxy]-N-{[4-({[2-(2-fluorophenyl)ethyl]amino}carbonyl)-1,3-thiazol-2-yl]methyl}pyridine-3-carboxamide] | 50 to 500 nM
12 | O=C(NCCc1cccc(Cl)c1)c1csc(CNCc2ccc(OC(F)(F)F)cc2)n1 [Entry 309, N-[2-(3-chlorophenyl)ethyl]-2-{[({4-[(trifluoromethyl)oxy]phenyl}methyl)amino]methyl}-1,3-thiazole-4-carboxamide] | > 2000 nM
13 | COc1cccc(CNC(=O)c2csc(CN)n2)c1OC [Entry 303, 2-(aminomethyl)-N-{[2,3-bis(methyloxy)phenyl]methyl}-1,3-thiazole-4-carboxamide] | > 2000 nM
14 | O=C(NCCc1cccc(Cl)c1)c1csc(CNC(=O)c2cccnc2Oc2ccc(Cl)cc2)n1 [Entry 62, N-{[4-({[2-(3-chlorophenyl)ethyl]amino}carbonyl)-1,3-thiazol-2-yl]methyl}-2-[(4-chlorophenyl)oxy]pyridine-3-carboxamide] | 50 to 500 nM
15 | O=C(COc1ccc(OC(F)(F)F)cc1)NCc1nc(C(=O)Nc2ccc(C(=O)O)c(O)c2)cs1 [Entry 142, 2-hydroxy-4-({[2-({[({4-[(trifluoromethyl)oxy]phenyl}oxy)acetyl]amino}methyl)-1,3-thiazol-4-yl]carbonyl}amino)benzoic acid] | 50 to 500 nM
16 | O=C(COc1ccc(OC(F)(F)F)cc1)NCc1nc(C(=O)NCc2ccc(F)c(C(F)(F)F)c2)cs1 [Entry 174, N-{[4-fluoro-3-(trifluoromethyl)phenyl]methyl}-2-({[({4-[(trifluoromethyl)oxy]phenyl}oxy)acetyl]amino}methyl)-1,3-thiazole-4-carboxamide] | 50 to 500 nM

Continued, values first:

Row | IC50 | SMILES
17 | 50 to 500 nM | CC(C)CNC(=O)c1csc(CNC(=O)COc2ccc(OC(F)(F)F)cc2)n1 [Entry 94, N-(2-methylpropyl)-2-({[({4-[(trifluoromethyl)oxy]phenyl}oxy)acetyl]amino}methyl)-1,3-thiazole-4-carboxamide]
18 | 50 to 500 nM | CC(C)[C@H](C)NC(=O)c1csc(CNC(=O)COc2ccc(OC(F)(F)F)cc2)n1 [Entry 153, N-[(1S)-1,2-dimethylpropyl]-2-({[({4-[(trifluoromethyl)oxy]phenyl}oxy)acetyl]amino}methyl)-1,3-thiazole-4-carboxamide]
19 | 50 to 500 nM | Cc1ccc(CCNC(=O)c2csc(CNC(=O)COc3ccc(OC(F)(F)F)cc3)n2)cc1 [Entry 36, N-[2-(4-methylphenyl)ethyl]-2-({[({4-[(trifluoromethyl)oxy]phenyl}oxy)acetyl]amino}methyl)-1,3-thiazole-4-carboxamide]
20 | 50 to 500 nM | CC(C)(C)CC(C)(C)NC(=O)c1csc(CNC(=O)COc2ccc(OC(F)(F)F)cc2)n1 [Entry 196, N-(1,1,3,3-tetramethylbutyl)-2-({[({4-[(trifluoromethyl)oxy]phenyl}oxy)acetyl]amino}methyl)-1,3-thiazole-4-carboxamide]
21 | 50 to 500 nM | O=C(COc1ccc(OC(F)(F)F)cc1)NCc1nc(C(=O)NCc2cccc(F)c2)cs1 [Entry 127, N-[(3-fluorophenyl)methyl]-2-({[({4-[(trifluoromethyl)oxy]phenyl}oxy)acetyl]amino}methyl)-1,3-thiazole-4-carboxamide]
22 | 50 to 500 nM | COc1ccc(OC)c(CCNC(=O)c2csc(CNC(=O)COc3ccc(OC(F)(F)F)cc3)n2)c1 [Entry 137, N-{2-[2,5-bis(methyloxy)phenyl]ethyl}-2-({[({4-[(trifluoromethyl)oxy]phenyl}oxy)acetyl]amino}methyl)-1,3-thiazole-4-carboxamide]
23 | 50 to 500 nM | O=C(COc1ccc(OC(F)(F)F)cc1)NCc1nc(C(=O)NCc2ccccn2)cs1 [Entry 190, N-(pyridin-2-ylmethyl)-2-({[({4-[(trifluoromethyl)oxy]phenyl}oxy)acetyl]amino}methyl)-1,3-thiazole-4-carboxamide]
24 | 50 to 500 nM | CC(CCc1ccccc1)NC(=O)c1csc(CNC(=O)COc2ccc(OC(F)(F)F)cc2)n1 (stereo not shown) [Entry 152, N-(1-methyl-3-phenylpropyl)-2-({[({4-[(trifluoromethyl)oxy]phenyl}oxy)acetyl]amino}methyl)-1,3-thiazole-4-carboxamide]
25 | 50 to 500 nM | CCOc1ccc(CCNC(=O)c2csc(CNC(=O)COc3ccc(OC(F)(F)F)cc3)n2)cc1 [Entry 68, N-{2-[4-(ethyloxy)phenyl]ethyl}-2-({[({4-[(trifluoromethyl)oxy]phenyl}oxy)acetyl]amino}methyl)-1,3-thiazole-4-carboxamide]
26 | < 50 nM | Cc1cccc(CCNC(=O)c2csc(CNC(=O)COc3ccc(OC(F)(F)F)cc3)n2)c1 [Entry 21, N-[2-(3-methylphenyl)ethyl]-2-({[({4-[(trifluoromethyl)oxy]phenyl}oxy)acetyl]amino}methyl)-1,3-thiazole-4-carboxamide]
27 | 50 to 500 nM | COc1ccc([C@H](C)NC(=O)c2csc(CNC(=O)COc3ccc(OC(F)(F)F)cc3)n2)cc1 [Entry 183, N-{(1S)-1-[4-(methyloxy)phenyl]ethyl}-2-({[({4-[(trifluoromethyl)oxy]phenyl}oxy)acetyl]amino}methyl)-1,3-thiazole-4-carboxamide]
28 | 50 to 500 nM | O=C(COc1ccc(OC(F)(F)F)cc1)NCc1nc(C(=O)NCc2cccc(Cl)c2)cs1 [Entry 119, N-[(3-chlorophenyl)methyl]-2-({[({4-[(trifluoromethyl)oxy]phenyl}oxy)acetyl]amino}methyl)-1,3-thiazole-4-carboxamide]
29 | 50 to 500 nM | CN(C)Cc1ccc(CSCCNC(=O)c2csc(CNC(=O)COc3ccc(OC(F)(F)F)cc3)n2)o1 [Entry 130, N-{2-[({5-[(dimethylamino)methyl]furan-2-yl}methyl)thio]ethyl}-2-({[({4-[(trifluoromethyl)oxy]phenyl}oxy)acetyl]amino}methyl)-1,3-thiazole-4-carboxamide]
30 | 50 to 500 nM | CCCCCC(C)NC(=O)c1csc(CNC(=O)COc2ccc(OC(F)(F)F)cc2)n1 (stereo not shown) [Entry 179, N-(1-methylhexyl)-2-({[({4-[(trifluoromethyl)oxy]phenyl}oxy)acetyl]amino}methyl)-1,3-thiazole-4-carboxamide]
31 | 50 to 500 nM | O=C(COc1ccc(OC(F)(F)F)cc1)NCc1nc(C(=O)NCc2cc(C(F)(F)F)ccc2Cl)cs1 [Entry 97, N-{[2-chloro-5-(trifluoromethyl)phenyl]methyl}-2-({[({4-[(trifluoromethyl)oxy]phenyl}oxy)acetyl]amino}methyl)-1,3-thiazole-4-carboxamide]
